The subject of one assay is T4302 CD133+ cells. In words: Cell growth / viability on day 5 (CellTiter-Glo). It is filed as cell-based, human. The following applies: 100 nM; with or without 3 Gy radiation. As for the experimental part:
(A, B) T4302 CD133+ cells were treated with 100 nM RO4929097 (GSI) and/or 100 nM tipifarnib (FTI) for 4 hours prior to 3 Gy radiation. (A) Cell growth on day 5 and (B) caspase 3/7 activation on day 3 were determined as described in FIG. 4. #: p<0.001 by one-way ANOVA, combo vs. single agents. (C) The effects of GSIs and FTI against growth of T4302 CD133− cells were determined as described in panel A. (D, E) T4302 CD133+ cells were treated with GSI, FTI, or a 1:1 mixture at different concentrations (ranging from 3000 nM to ˜0.5 nM, 1:3 dilution)±3 Gy radiation. Cell viability was determined at 5 days after treatment in comparison to vehicle-treated groups. […] (F) T4302 CD 133+ cells were treated by GSI±FTI with a 2-fold dilution. Neurospheres were countered on day 10, and normalized to the vehicle-treated group.
GSC sensitivity to drug(s) was primarily measured as inhibition of cell viability (survival). Cells were treated with drugs alone or in combination±3-Gy radiation at indicated concentrations. Cell viability is determined by CellTiter-Glo kit (Promega) after 5-day incubation. IC50 values are calculated by the GraphPad Prism5 software.
(In general: In ATP-based viability assays light output follows the ATP content of the culture.)

A further assay concerns CD133+ GBM stem cells. The assay is described as follows: Growth inhibition within 5 days, panel of glioblastoma xenograft samples. The format is cell-based, human. The following applies: 5-day period; in combination with 3 Gy radiation. How it is done: CD133+ cells were derived from multiple glioblastoma xenograft samples as indicated. The growth inhibitory effects by GSI and/or FTIs were determined as described in FIG. 5.
Therefore, effective killing of GBM stem cells may delay or even prevent tumor recurrence. […] In combination with radiation, GSIs or FTIs alone reduced cell numbers by ˜75%.

Another assay relates to cleaved Notch1. In words: IHC staining for cleaved Notch1 in intracranial tumors. The format is in vivo, Mice. The settings on record: oral 30 mg/kg/day, 7 days. As for the experimental part: (A, B) T4302 CD133+ cells were treated with 100 nM GSI±FTI for 48 hours and lysed in RIPA buffer. Mice bearing intracranial T4302 tumors were orally treated with 30 mg/kg/day GSI once a day (q.d.)±100 mg/kg/day FTI twice a day (b.i.d.) for 7 days. Brains were resected and homogenized in RIPA buffer. All lysates were blotted with an antibody specific to prelamin A. (B) Additional brains were fixed and resected for IHC staining for cleaved Notch1. (C) T4302 CD133+ cells were infected with lentivirus expressing firefly luciferase and selected with puromycin for two days. Athymic nude mice were intracranially implanted with 5,000 cells, maintained for 10 days, and treated with GSI±FTI for 20 days as described above. In a separated experiment, animals were treated by the same protocol, except they were given 2 doses of 4 Gy X-ray irradiation on day 11 and day 12, 4 hours after drug administration. These mice were on drugs for 30 days. The median survival was calculated by the GraphPad Prism 5 software. (D) Animals in the unirradiated experiment were tracked for their tumor progression by bioluminescence imaging. The Y axis is set in a log scale. (E,F) The survival curves of these two experiments are shown.

For a further assay, the system named is HIF1α and HIF2α. The assay is described as follows: Immunoblot of HIF1α/HIF2α under hypoxia in T4302 CD133+ cells. It is filed as cell-based, human. The following applies: 200 nM 24 h, then 2% O2 16 h. As for the experimental part:
(A) T4302 CD133+ cells were treated with 200 nM RO4929097 (GSI), and irradiated 4 hours later. Cells were cultured for two days and lysed for immunoblotting. (B) T4302 CD133+ cells were treated with 200 nM GSI or FTI±radiation. Cells were lysed 2 days after treatment. (C) T4302 CD133+ cells were treated with 200 nM GSI±FTI for 24 hours, and left under normoxia or in 2% O2 for 16 hours before being lysed for immunoblotting.
In general terms: In western blotting, separated proteins are transferred to a membrane and probed.

The subject of a further assay is Ras. The assay is described as follows: Active Ras pull-down assay in T4302 CD133+ cells. It is filed as cell-based, human. The settings on record: 200 nM; after radiation exposure. How it is done: (A) T4302 CD133+ cells were infected with NICD2-lentivirus and treated with 2 μM DAPT±3 Gy radiation. Cells were collected at 24 or 48 hours after treatment. Protein levels of phospho-s473 Akt, total Akt and actin were blotted. (B) Control CD133+ cells or NICD2-expressing cells were pre-treated with 10 μM PI3K inhibitor (LY294002), or 50 μM Akt inhibitor (SH-6) for 4 hours prior to radiation. Relative caspase 3/7 activity was determined at 48 hours after radiation as described in FIG. 3C. (C) T4302 CD133+ cells were treated with 200 nM RO4929097 (GSI)±3 Gy. Active Ras levels were determined by a Ras Pull Down Assay kit using a pan-Ras antibody (Pierce). (D, E) T4302 cells were infected with H-Ras V12-lentivirus. Cells were treated with 200 nM RO4929097 (GSI)±3 Gy. Growth of cells was determined at day 5 after treatment (CellTiter-Glo assay, Promega). Relative caspase 3/7 activity was determined at 48 hours after treatment. […] Equal amounts of protein were resolved by SDS-PAGE and analyzed by immunoblotting with indicated antibodies. *: p<0.05 by Student's t-test.
Potential mechanisms that mediate Notch-dependent Akt activation were examined next. […] Using an active Ras pull-down assay kit (Pierce), the activation status of Ras signaling can be determined as the amount of Ras-GTP co-purified with a GST-tagged Ras-binding domain of c-Raf. […]

Here are results for one compound from patent US8853274B1, “Compositions and methods for targeting glioblastomas cells” (Vanderbilt University, priority 2011, dated 2014).

SMILES strings stand for the structures.

Regarding `CC(C)(C(=O)NCC(F)(F)C(F)(F)F)C(=O)N[C@@H]1C(=O)Nc2ccccc2-c2ccccc21` [RO4929097], the “degree of growth inhibition after 5-day treatment, in words” value with T4302 CD133+ cells is “weaker growth inhibition”. The “growth inhibition / reduction of cell numbers” value in the assay with CD133+ GBM stem cells is given as around 75%. For the same compound, the “levels of cleaved Notch1 in intracranial tumors (IHC)” value in the assay with cleaved Notch1 is “decreased the levels of cleaved Notch1”. In addition, the “HIF1α and HIF2α levels upon hypoxia stimulation” value in the assay on HIF1α and HIF2α was “moderate reduction”. Further, in the assay with Ras, the “active Ras levels” value is “decreased active Ras levels”.
